2 compounds from patent US6379659B1, “Keratin fiber strengthening agent and method for strengthening keratin fiber” (Takasago International Corporation, priority 1997, dated 2002) can be followed below.

Test [1] is described as follows: Breaking strength test on dog hair (Example 36). How it is done: Dog hair samples 11 to 15 were prepared as follows and subjected to a destructive test under the following conditions by the use of Shimadzu Autograph AGS-SOOB (manufactured by Shimadzu Corp.) to measure a breaking strength and a Young's modulus. The breaking strength and Young's modulus data obtained are also graphically represented in FIGS. 4 and 5, respectively.
Dog Hair: A dog hair having a length of about 10 to 15 cm and a diameter of about 0.08 to 0.1 mm, clamped 2 cm from each end.
(§1) Pulling speed: 5.0 cm/min
(§2) Atmosphere: 25° C., 40% RH
Healthy dog hairs collected from around the neck of a 4-year-old male Shetland sheepdog were used. The untreated hair as collected (sample 11) weighing 50 g was treated in the same manner as in Example 31 to prepare samples 12 to 15.

Test [2] can be described thus: Young's modulus, breaking strength, elongation and toughness of solvent-damaged human hair (Examples 33, 35). As to conditions: damaged hair of person soaked in treating agent; n=10. How it is done: (§3) Healthy hair, cut off from a person at a beauty parlor, which had not been permed nor bleached, was used.
Healthy hair (untreated hair, sample 6) was treated with a chloroform-ethanol mixed solvent in the same manner as in Example 31 to prepare sample 7. Samples 8 to 10 were prepared in the same manner as for samples 3 to 5 of Example 31. The breaking strength of each sample was measured by means of Shimadzu Autograph. A Young's modulus was also measured.

Test [3] is described as follows: Breaking strength test on solvent-damaged human hair (Example 31). The settings on record: damaged (chloroform/ethanol-treated) hair of person soaked in treating agent; 25° C., 40% RH; average n = 10. How it is done: Hair samples 1 to 5 were prepared and subjected to a destructive test under the following conditions by the use of Shimadzu Autograph AGS-500B (manufactured by Shimadzu Corp.) to measure a breaking strength.
Hair: A hair having a length of about 15 cm and a diameter of about 0.08 to 0.1 mm, clamped 5.7 cm from each end.
as §1, §2, §3
The healthy hair (untreated hair, sample 1) weighing 50 g was soaked in 450 ml of a 2:1 (by volume) mixture of chloroform and ethanol and subjected to ultrasonication for 15 minutes to remove lipids. The sample was washed with 250 ml of a 2:1 (by volume) mixture of chloroform and ethanol and then with 100 ml of acetone and dried to prepare solvent-treated hair as damaged hair (sample 2).
The solvent-treated hair weighing 40 g was soaked in a 5-fold weight of each of the blank treating agent of Comparative Example 1, the racemate-containing treating agent of Comparative Example 2, and the keratin fiber strengthening agent of Example 1 and subjected to ultrasonication for 15 minutes, followed by washing with five 1000 ml portions of water. The treated hair was dried under reduced pressure at 60° C. 2 hours and then under reduced pressure for 3 hours to prepare samples 3 to 5, respectively.

Test [4] is described as follows: Breaking strength test, elongation and toughness of solvent-damaged human hair (Example 38). On the procedure: Samples (Samples 16 to 19) were prepared as described below and breaking strength test and measurement of elongation were carried out under the below-described measuring conditions by using Shimadzu Autograph AGS0599B (manufactured by Simadzu Corp). Based on the results, toughness (breaking strength×elongation) of each of Samples 16 to 19 was calculated.
Relative humidity: 40%, temperature: 25° C.
Hair employed for the test: A hair having a length of about 15 cm and a diameter of about 0.08 to 0.1 mm, clamped 5.0 cm from each end.
as §1
(b) Preparation of Samples (Samples 16 to 19)
as §3
The healthy hair (untreated hair, Sample 16) weighing 50 g was soaked in 450 ml of a 2:1 mixture of chloroform and ethanol and subjected to ultrasonication for 15 minutes to remove lipid components. The sample was then washed with 250 ml of a 2:1 mixture of chloroform and ethanol and then with 100 ml of acetone, followed by drying under reduced pressure, whereby organic-solvent-treated hair (Sample 17) was obtained.
The solvent-treated hair (Sample 17) weighing 40 g was soaked in a 5-fold weight of each of the treating agents and subjected to ultrasonication for 15 minutes. The hair was then washed five times with 1000 ml of water, followed by drying at 60° C. for 2 hours under reduced pressure and then drying for 3 hours under reduced pressure, whereby each of Samples 18 to 19 were obtained. Described specifically, Sample 18 was the hair treated with the treating agent (placebo treating agent), which had been prepared in Comparative Example 3, subsequent to the treatment with a solvent, while Sample 19 was the hair treated with the keratin fiber strengthening agent of the present invention (Compound-6-containing treating agent) which had been prepared in […].
The differences of the samples are summarized as follows.
Sample 16: Healthy hair (untreated)
Sample 17: Hair treated with the solvent
Sample 18: Hair treated with the solvent and then with the placebo treating agent prepared in Comparative Example
Sample 19: Hair treated with the solvent and then with the keratin fiber strengthening agent of the present invention (Compound-6-containing treating agent) prepared in Example 31

Setting [5] is: damaged dog hair soaked in treating agent, n = 10.
The mark [6] stands for this setting: solvent-treated hair of person soaked in treating agent, mean n=10.

Consider `CCCCCCCCCCCCCCCCCC(=O)N[C@@H](CO)[C@H](O)CCCCCCCCCCCCCCC` [Compound 1, (2S,3R)-2-octadecanoylaminooctadecane-1,3-diol], for which the “Breaking Strength per area” value in test [1] (damaged dog hair soaked in treating agent) is listed as 42.55 kgf/mm^2. Also, in test [1] (setting [5]), the “Breaking Strength” value is given as 0.1196 kgf and the “Young's Modulus” value worked out at 605.240 kgf/mm^2. In test [1] (not only human hair but dog hair), the “Improvements on breaking strength and Young's modulus, in words” value was “significant improvements”. In test [2], the “Breaking Strength” value was 0.2941 kgf; the Elongation amounted to 27.08 mm; the “Toughness (product of breaking strength and elongation)” value stood at 7.9642 kgf × mm. For the same compound, the “Breaking Strength” value in test [3] stood at 0.2058 kgf.

Turning to `CCCCCCCCCCCCCCC[C@@H](O)[C@H](CO)NC(=O)C(O)CCCCCCCCCCCCCC` (stereo partly drawn) [Compound 6, (2S,3R)-2-(2-hydroxyhexadecanoyl)aminooctadecane-1,3-diol], the “Breaking strength of hair as compared with the placebo treating agent, in words” value in test [4] (P<0.05 vs Sample 18) was “significantly increases”. Besides, in test [4] (setting [6]), the Breaking Strength came to 0.266 Kgf, the Elongation came out at 26.02 mm and the “Toughness (breaking strength×elongation)” value is given as 6.921 kgf·mm.
